Assay results from ChEMBL document CHEMBL1201862, “PubChem BioAssay data set” (2004).
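Step 1: Grow cells in 96-well plates. Step 2: Expose to compound for 48 hours at 5 concentrations. Step 3: Interpolate endpoints linearly; if unreached, use highest concentration. GI50 = concentration required for 50% inhibition of growth.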 Active and inactive are the calls of the source. No stated cut-off is given here; in the data, active = GI50 up to about 1.1 µM and inactive = higher.

How the values were obtained:
Experiment in all cases: DTP human tumour cell line panel, 48 h
[1] = system: A498
[2] = system: A549
[3] = system: BT-549
[4] = system: HL-60
[5] = system: HOP-62
[6] = system: Hs-578T
[7] = system: KM12
[8] = system: LOX IMVI
[9] = system: MDA-MB-435
[10] = system: Malme-3M
[11] = system: NCI-H226
[12] = system: NCI-H522
[13] = system: NCI/ADR-RES
[14] = system: SF-268
[15] = system: SF-295
[16] = system: SK-MEL-28
[17] = system: SNB-19
[18] = system: SR
[19] = system: RXF 393

O=C(Nc1ccccc1C(=O)Nc1nccs1)c1ccccc1
GI50 [1]: 8.51 µM (inactive) | GI50 [2]: 12.4 µM (inactive) | GI50 [3]: 15.1 µM (inactive) | GI50 [4]: 3.82 µM (inactive) | GI50 [5]: 16.6 µM (inactive) | GI50 [6]: 23.9 µM (inactive) | GI50 [7]: 6.03 µM (inactive) | GI50 [8]: 4.83 µM (inactive) | GI50 [9]: 33.7 µM (inactive) | GI50 [10]: 10.5 µM (inactive) | GI50 [11]: 32.5 µM (inactive) | GI50 [12]: 14.3 µM (inactive) | GI50 [13]: 6.17 µM (inactive) | GI50 [14]: 14.6 µM (inactive) | GI50 [15]: 25.8 µM (inactive) | GI50 [16]: 20.7 µM (inactive) | GI50 [17]: 31.9 µM (inactive) | GI50 [18]: 7.31 µM (inactive)

NC(=O)C/C=C/CC(N)=O
GI50 [1]: > 100 µM (inactive) | GI50 [2]: > 100 µM (inactive) | GI50 [3]: > 100 µM (inactive) | GI50 [4]: > 100 µM (inactive) | GI50 [5]: > 100 µM (inactive) | GI50 [6]: > 100 µM (inactive) | GI50 [7]: > 100 µM (inactive) | GI50 [8]: > 100 µM (inactive) | GI50 [9]: > 100 µM (inactive) | GI50 [10]: > 100 µM (inactive) | GI50 [11]: > 100 µM (inactive) | GI50 [12]: > 100 µM (inactive) | GI50 [13]: > 100 µM (inactive) | GI50 [19]: > 100 µM (inactive) | GI50 [14]: > 100 µM (inactive) | GI50 [15]: > 100 µM (inactive) | GI50 [16]: > 100 µM (inactive) | GI50 [17]: > 100 µM (inactive)

Cc1c(/C=N\NC(=S)N(C)CCN(C)C(=S)N/N=C\c2c(C)n(C)n(-c3ccccc3)c2=O)c(=O)n(-c2ccccc2)n1C
GI50 [1]: > 100 µM (inactive) | GI50 [2]: > 100 µM (inactive) | GI50 [3]: > 100 µM (inactive) | GI50 [5]: > 100 µM (inactive) | GI50 [6]: > 100 µM (inactive) | GI50 [7]: > 100 µM (inactive) | GI50 [9]: > 100 µM (inactive) | GI50 [10]: 55.7 µM (inactive) | GI50 [11]: > 100 µM (inactive) | GI50 [12]: 41.7 µM (inactive) | GI50 [13]: > 100 µM (inactive) | GI50 [19]: > 100 µM (inactive) | GI50 [14]: > 100 µM (inactive) | GI50 [15]: > 100 µM (inactive) | GI50 [17]: > 100 µM (inactive) | GI50 [18]: 35.3 µM (inactive)

CCOC(=O)C(=Cc1[nH]c2ccccc2c1-c1c[nH]c2ccccc12)C(=O)OCC
GI50 [1]: 14.5 µM (inactive) | GI50 [2]: 16.6 µM (inactive) | GI50 [3]: 14.7 µM (inactive) | GI50 [5]: 14.2 µM (inactive) | GI50 [6]: 29.9 µM (inactive) | GI50 [7]: 4.69 µM (inactive) | GI50 [8]: 12.7 µM (inactive) | GI50 [9]: 5.96 µM (inactive) | GI50 [10]: 18.7 µM (inactive) | GI50 [11]: 14 µM (inactive) | GI50 [12]: 54.7 µM (inactive) | GI50 [13]: 7.16 µM (inactive) | GI50 [19]: 10.8 µM (inactive) | GI50 [14]: 13.3 µM (inactive) | GI50 [15]: 12.1 µM (inactive) | GI50 [17]: 14.2 µM (inactive) | GI50 [18]: 3.13 µM (inactive)

COc1cccc(C2c3cc4c(cc3OC(NNc3ccccc3)C2C)OCO4)c1OC (stereo unspecified)
GI50 [1]: 14.9 µM (inactive) | GI50 [2]: 3.58 µM (inactive) | GI50 [3]: 7.28 µM (inactive) | GI50 [4]: 4.05 µM (inactive) | GI50 [5]: 3.64 µM (inactive) | GI50 [6]: 6.35 µM (inactive) | GI50 [7]: 1.59 µM (inactive) | GI50 [8]: 16.5 µM (inactive) | GI50 [9]: 3.04 µM (inactive) | GI50 [10]: 12.2 µM (inactive) | GI50 [11]: 5.06 µM (inactive) | GI50 [12]: 2.07 µM (inactive) | GI50 [19]: 3.76 µM (inactive) | GI50 [14]: 23.1 µM (inactive) | GI50 [15]: 0.678 µM (active) | GI50 [16]: 24.2 µM (inactive) | GI50 [17]: 17.6 µM (inactive) | GI50 [18]: 1.06 µM (active)

Cc1ccc([N+](=O)[O-])cc1NC(=O)C(=O)C1CCC2=C(Sc3ccccc3N2)C1=O (stereo unspecified)
GI50 [2]: > 100 µM (inactive) | GI50 [3]: > 100 µM (inactive) | GI50 [4]: > 100 µM (inactive) | GI50 [5]: > 100 µM (inactive) | GI50 [6]: > 100 µM (inactive) | GI50 [7]: > 100 µM (inactive) | GI50 [8]: > 100 µM (inactive) | GI50 [9]: > 100 µM (inactive) | GI50 [11]: 58.7 µM (inactive) | GI50 [12]: > 100 µM (inactive) | GI50 [13]: > 100 µM (inactive) | GI50 [19]: > 100 µM (inactive) | GI50 [14]: > 100 µM (inactive) | GI50 [15]: > 100 µM (inactive) | GI50 [16]: > 100 µM (inactive) | GI50 [17]: > 100 µM (inactive)

CC(C)(C)n1c(=O)n2n(c1=O)C1c3cccc4cccc(c34)C2C2c3cccc4cccc(c34)C1n1c(=O)n(C(C)(C)C)c(=O)n12
GI50 [1]: > 100 µM (inactive) | GI50 [2]: 78.3 µM (inactive) | GI50 [3]: > 100 µM (inactive) | GI50 [4]: 30.5 µM (inactive) | GI50 [5]: 67.3 µM (inactive) | GI50 [6]: 64.3 µM (inactive) | GI50 [7]: > 100 µM (inactive) | GI50 [8]: 42.8 µM (inactive) | GI50 [9]: > 100 µM (inactive) | GI50 [10]: > 100 µM (inactive) | GI50 [11]: 84.1 µM (inactive) | GI50 [12]: 36 µM (inactive) | GI50 [13]: > 100 µM (inactive) | GI50 [14]: 53.8 µM (inactive) | GI50 [15]: 80.4 µM (inactive) | GI50 [16]: > 100 µM (inactive) | GI50 [17]: > 100 µM (inactive)

COP1(=O)OCc2cnccc2O1 (stereo unspecified)
GI50 [2]: > 100 µM (inactive) | GI50 [3]: > 100 µM (inactive) | GI50 [5]: > 100 µM (inactive) | GI50 [6]: > 100 µM (inactive) | GI50 [7]: > 100 µM (inactive) | GI50 [8]: > 100 µM (inactive) | GI50 [9]: > 100 µM (inactive) | GI50 [10]: > 100 µM (inactive) | GI50 [11]: > 100 µM (inactive) | GI50 [12]: > 100 µM (inactive) | GI50 [13]: > 100 µM (inactive) | GI50 [14]: > 100 µM (inactive) | GI50 [15]: > 100 µM (inactive) | GI50 [16]: > 100 µM (inactive) | GI50 [17]: > 100 µM (inactive) | GI50 [18]: > 100 µM (inactive)
